The target of one experiment is T1, ZIP2 (Arabidopsis thaliana, UniProt Q9LTH9).
T1 construct: expressed in transfected cells; host or cells: S. cerevisiae ZHY3 (zrt1::LEU2 zrt2::HIS3) with an Arabidopsis cDNA clone in pFL61
T1 sequence (Q9LTH9 30-353): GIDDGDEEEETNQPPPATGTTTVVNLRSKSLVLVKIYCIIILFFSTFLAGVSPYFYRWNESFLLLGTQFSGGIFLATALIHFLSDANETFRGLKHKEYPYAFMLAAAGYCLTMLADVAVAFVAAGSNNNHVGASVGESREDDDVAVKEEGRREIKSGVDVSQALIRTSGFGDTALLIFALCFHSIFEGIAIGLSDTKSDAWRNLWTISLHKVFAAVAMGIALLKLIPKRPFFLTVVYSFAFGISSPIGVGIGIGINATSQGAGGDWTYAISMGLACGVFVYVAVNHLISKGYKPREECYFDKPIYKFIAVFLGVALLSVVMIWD
Nature of the experiment: Zn uptake by ZHY3 containing ZIP2. Type of experiment: cell-based. The settings on record: ZHY3 cells containing ZIP2, 5 minute time course using 10 mM Zn. Here is the method:
(§1) Zinc uptake assays were performed as described previously for iron uptake (Eide et al. (1992) J. Biol. Chem. 267:20774-20781) except that ^65ZnCl2 (Amersham) and LZM-EDTA were substituted for ^59FeCI3 and LIM-EDTA, respectively. Cells were incubated for 5 minutes in LZM-EDTA plus the indicated concentration of ^65Zn, collected on glass fiber filters (Schleicher and Schuell), washed with 10 ml ice-cold SSW (1 mM EDTA, 20 mM trisodium citrate, 1 mM KH2PO4, 1 mM CaCl2, 5 mM MgSO4, 1 mM NaCl pH 4.2), and cell-associated radioactivity was measured by liquid scintillation counting. […] Michaelis-Menten kinetic values were determined using […] software (Intellikinetics, Princeton, N.J.). […] The statistical significance of the differences of values relative to controls was determined with one-way analysis of variance (ANOVA) followed by a Dunnett multiple comparison test. β-galactosidase activity was assayed in cells harvested at an OD600 of 0.5-2.0 as described by Guarente (Guarente, L. (1983) Methods Enzymol. 101:181-191) and activity is expressed as the change in absorbance at 420 nm×1000 divided by (min×ml of culture used×OD600 of the culture). Cell-associated zinc was measured in parallel cultures supplemented with tracer amounts of ^65Zn (10 μM) and nonradioactive zinc to the indicated final concentration. […]

For another experiment, the target named is T2, ZIP1 (Arabidopsis thaliana, UniProt O81123).
T2 construct: expressed in transfected cells; host or cells: S. cerevisiae ZHY3 (zrt1::LEU2 zrt2::HIS3) with an Arabidopsis cDNA clone in pFL61
T2 sequence (O81123 29-355): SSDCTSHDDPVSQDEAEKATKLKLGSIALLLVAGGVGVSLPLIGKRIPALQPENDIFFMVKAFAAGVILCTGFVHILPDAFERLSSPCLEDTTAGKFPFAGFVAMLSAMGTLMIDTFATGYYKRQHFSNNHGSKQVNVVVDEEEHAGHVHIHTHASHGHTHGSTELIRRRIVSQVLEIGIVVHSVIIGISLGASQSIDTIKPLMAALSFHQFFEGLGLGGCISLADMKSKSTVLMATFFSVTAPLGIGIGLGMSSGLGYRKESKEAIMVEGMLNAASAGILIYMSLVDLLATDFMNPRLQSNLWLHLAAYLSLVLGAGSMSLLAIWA
The experiment in a line: Zn uptake by ZHY3 containing the ZIP1 gene. The experiment is classed as cell-based. Conditions: 5 minute time course using 10 mM Zn. The procedure:
as §1

SMILES strings stand for the structures.

As to `[Zn+2]` [zinc], the Zn uptake entry on ZIP2 is “no Zn uptake”. Also, the Zn uptake rate at ZIP1 is on record as 191 fmol/min/10^6 cells.

The record behind these values is patent publication US6590140B1, “Metal-regulated transporters and uses therefor” (Trustees of Dartmouth College, priority 1996, dated 2003).
